Results published in paper PMC5808361 (Journal of Medicinal Chemistry, 2017).
Where two headings read alike, the source gives them in different places.

Key:
PRMT3 = PRMT3 (Homo sapiens, UniProt O60678); assay: PRMT3 biochemical assay
human Flag-tagged PRMT3 = human Flag-tagged PRMT3 (Homo sapiens, UniProt O60678); assay: Cellular PRMT3 assay; type: cell-based
[1] = tested on: 31 other lysine methyltransferases, arginine methyltransferases, and DNA and RNA methyltransferases; assay: Methyltransferase selectivity assays; type: biochemical; conditions: compound concentrations of 1, 5, and 20 μM
[2] = tested on: 55 protein targets (47 GPCRs, five ion channels, and three transporters); assay: CEREP selectivity panel; type: binding; conditions: at 10 μM

Sequence of PRMT3 (O60678 whole entry): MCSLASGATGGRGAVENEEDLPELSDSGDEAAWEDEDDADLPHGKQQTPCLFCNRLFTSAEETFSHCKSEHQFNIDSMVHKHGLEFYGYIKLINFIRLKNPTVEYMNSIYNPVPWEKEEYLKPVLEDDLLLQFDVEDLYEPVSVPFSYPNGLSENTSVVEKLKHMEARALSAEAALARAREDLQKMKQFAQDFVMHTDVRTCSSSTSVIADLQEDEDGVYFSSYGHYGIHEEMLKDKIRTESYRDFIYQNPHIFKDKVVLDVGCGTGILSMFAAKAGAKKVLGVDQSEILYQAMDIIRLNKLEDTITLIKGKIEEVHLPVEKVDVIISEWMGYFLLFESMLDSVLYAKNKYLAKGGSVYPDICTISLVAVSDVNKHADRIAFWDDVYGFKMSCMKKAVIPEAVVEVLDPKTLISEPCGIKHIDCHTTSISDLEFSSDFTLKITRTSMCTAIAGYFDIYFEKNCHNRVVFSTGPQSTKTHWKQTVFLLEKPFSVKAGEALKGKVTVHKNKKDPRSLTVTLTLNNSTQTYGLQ
Sequence of human Flag-tagged PRMT3 (O60678 whole entry): as above

Row | selectivity for PRMT3 over 31 other methyltransferases (in words) [1] | Compound | % of inhibition (off-target activities) [2] | other results
1 |  | CON(C)C(=O)CNC(=O)Nc1ccc2cnccc2c1 [Compound 22, 2-(3-(Isoquinolin-6-yl)ureido)-N-methoxy-N-methylacetamide] |  | fold less potent than 5 (PRMT3; PRMT3 IC50 relative to compound 5): around 6 fold
2 | highly selective for PRMT3 | O=C(NCC(=O)N1CCCC1)Nc1cc2ccncc2cc1F [Compound 36, 1-(7-Fluoroisoquinolin-6-yl)-3-(2-oxo-2-(pyrrolidin-1-yl)ethyl)urea] | < 50% | effect on H4R3me2a levels (in words) (human Flag-tagged PRMT3): matched with that of the catalytically dead PRMT3 mutant E335Q
3 |  | CC1CCC(C)N1C(=O)CNC(=O)Nc1ccc2cnccc2c1 (stereo not drawn) [Compound 30, 1-(2-(2,5-Dimethylpyrrolidin-1-yl)-2-oxoethyl)-3-(isoquinolin-6-yl)urea] | < 50% | 
4 | highly selective for PRMT3 | O=C(NCC(=O)N1CC(F)(F)C(F)(F)C1)Nc1ccc2cnccc2c1 [Compound 29, 1-(Isoquinolin-6-yl)-3-(2-oxo-2-(3,3,4,4-tetrafluoropyrrolidin-1-yl)ethyl)urea] | < 50% | effect on H4R3me2a levels (in words) (human Flag-tagged PRMT3; 1 μM compound, compared with catalytically dead PRMT3 mutant E335Q): matched with that of the catalytically dead PRMT3 mutant E335Q
5 |  | CN1CCN(C(=O)CNC(=O)Nc2ccc3cnccc3c2)CC1 [Compound 18, 1-(Isoquinolin-6-yl)-3-(2-(4-methylpiperazin-1-yl)-2-oxoethyl)urea] |  | PRMT3 inhibitory activity (in words) (PRMT3; PRMT3 biochemical assay): loss of the inhibitory activity
